Results from ChEMBL document CHEMBL1121503, “Estrogen receptor based imaging agents. 2. Synthesis and receptor binding affinity of side-chain halogenated hexestrol derivatives” (J Med Chem, 1980).

The compounds below were run against Estrogen receptor (Ovis aries) (UniProt P49885+Q9TU15).

RAC | Compound
20 | C/C(=C(/C)c1ccc(O)cc1)c1ccc(O)cc1
113 | CCC(c1ccc(O)cc1)C(CCCl)c1ccc(O)cc1 (stereo not given)
32 | Oc1ccc(C(=C2CCCCC2)c2ccc(O)cc2)cc1
71 | CCC(c1ccc(O)cc1)C(CCBr)c1ccc(O)cc1 (stereo not given)
60 | CCC(c1ccc(O)cc1)C(CCI)c1ccc(O)cc1 (stereo not given)
48 | Oc1ccc(/C(=C(/c2ccc(O)cc2)C(F)(F)F)C(F)(F)F)cc1
21 | Oc1ccc(C(=C(C(F)(F)F)C(F)(F)F)c2ccccc2)cc1
129 | CCC(c1ccc(O)cc1)C(CCF)c1ccc(O)cc1 (stereo not given)
300 | CC[C@H](c1ccc(O)cc1)[C@@H](CC)c1ccc(O)cc1
10 | Oc1ccc(/C(=C(/c2ccccc2)C(F)(F)F)C(F)(F)F)cc1
